Results taken from paper PMC12349723, “Computationally accelerated identification of P-glycoprotein inhibitors” (PLOS One, 2025).
Several values for one entry are separate records, joined by “and”; a condition that tells them apart may be missing. Equal entries are not always repeated. Where two headings read alike, the source gives them in different places.

What was measured:
[1] = tested on: DU145-TXR cells; test: MTT viability assay, reversal of MDR (re-sensitization to paclitaxel) in P-gp overexpressing DU145-TXR cells; format: cell-based, human; conditions: for % Survival, mean / % Survival: 15 µM compound + 500 nM PTX (Paclitaxel, Taxol); for % Survival, mean / % Survival / viability at 15 µM: DU145-TXR; for Re-sensitization of DU145-TXR cells to PTX (reversal of MDR): 15 µM compound with or without 500 nM PTX, 48 h, MTT, re-sensitization = 30% or greater decrease in cell viability; for viability at 15 µM: Homo sapiens, 15 µM Compound Alone
How it was run: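 MTT viability testing was done on P-gp overexpressing, multidrug resistant DU145-TXR human prostate cancer cells. They were kept in 10 nM paclitaxel and seeded at 3,000 cells per well in complete RPMI. Cells were exposed to compound, with or without paclitaxel, for 48 hours. MTT was then added for 4 hours, formazan was dissolved in DMSO, and absorbance was read at 570 nm. Survival was expressed relative to control-treated cells.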

[2] = tested on: A2780 cells; test: MTT viability assay, parental A2780 cells, with or without PTX; format: cell-based, human; conditions: for Increase of PTX toxicity against parental A2780 cells: 15 µM compound with or without 500 nM PTX, 48 h, MTT; for Mean % Survival / % Survival (individual sample): A2780 cells; for Mean % Survival / viability at 15 µM: mean of 8 or 12 samples; for % Survival (individual sample): single samples; for viability at 15 µM: Homo sapiens, A2780, A2780 cells, read-out: Mean % Survival
How it was run: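 A2780 and doxorubicin-selected (100 nM) P-gp-overexpressing A2780-ADR cells, 3,000/well in RPMI + 10% FBS, were exposed to compounds, with or without chemotherapeutic, for 48 h at 37 °C. MTT read at 570 nm after 4 h; survival expressed as percent of vehicle, or vehicle-plus-chemotherapeutic, control.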

[3] = SWISS-ADME computational analysis of chemical properties; conditions: predicted aqueous solubility compared to that observed in the laboratory
How it was run: (§1)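 In silico prediction by the SWISS-ADME server of chemical properties and of whether each molecule is a P-gp transport substrate, based on its chemical and structural characteristics.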

[4] = tested on: P-gp; test: SWISS-ADME prediction of P-gp transport substrate; conditions: prediction compared to the LC-MS/MS intracellular accumulation data
How it was run: as §1

[5] = target: T1, P-gp (Homo sapiens, UniProt P08183); test: Top Hit classification from combined in vitro criteria; conditions: reverse MDR, do not increase PTX toxicity in chemo-sensitive cancer cells, non-toxic to noncancerous cells, not P-gp substrates
T1 construct: The MDR, P-gp overexpressing DU145-TXR cells were maintained under positive selection pressure; endogenous in cells; host or cells: DU145-TXR (paclitaxel-resistant sub-line of DU145 human prostate cancer cells)
T1 sequence (P08183 whole entry): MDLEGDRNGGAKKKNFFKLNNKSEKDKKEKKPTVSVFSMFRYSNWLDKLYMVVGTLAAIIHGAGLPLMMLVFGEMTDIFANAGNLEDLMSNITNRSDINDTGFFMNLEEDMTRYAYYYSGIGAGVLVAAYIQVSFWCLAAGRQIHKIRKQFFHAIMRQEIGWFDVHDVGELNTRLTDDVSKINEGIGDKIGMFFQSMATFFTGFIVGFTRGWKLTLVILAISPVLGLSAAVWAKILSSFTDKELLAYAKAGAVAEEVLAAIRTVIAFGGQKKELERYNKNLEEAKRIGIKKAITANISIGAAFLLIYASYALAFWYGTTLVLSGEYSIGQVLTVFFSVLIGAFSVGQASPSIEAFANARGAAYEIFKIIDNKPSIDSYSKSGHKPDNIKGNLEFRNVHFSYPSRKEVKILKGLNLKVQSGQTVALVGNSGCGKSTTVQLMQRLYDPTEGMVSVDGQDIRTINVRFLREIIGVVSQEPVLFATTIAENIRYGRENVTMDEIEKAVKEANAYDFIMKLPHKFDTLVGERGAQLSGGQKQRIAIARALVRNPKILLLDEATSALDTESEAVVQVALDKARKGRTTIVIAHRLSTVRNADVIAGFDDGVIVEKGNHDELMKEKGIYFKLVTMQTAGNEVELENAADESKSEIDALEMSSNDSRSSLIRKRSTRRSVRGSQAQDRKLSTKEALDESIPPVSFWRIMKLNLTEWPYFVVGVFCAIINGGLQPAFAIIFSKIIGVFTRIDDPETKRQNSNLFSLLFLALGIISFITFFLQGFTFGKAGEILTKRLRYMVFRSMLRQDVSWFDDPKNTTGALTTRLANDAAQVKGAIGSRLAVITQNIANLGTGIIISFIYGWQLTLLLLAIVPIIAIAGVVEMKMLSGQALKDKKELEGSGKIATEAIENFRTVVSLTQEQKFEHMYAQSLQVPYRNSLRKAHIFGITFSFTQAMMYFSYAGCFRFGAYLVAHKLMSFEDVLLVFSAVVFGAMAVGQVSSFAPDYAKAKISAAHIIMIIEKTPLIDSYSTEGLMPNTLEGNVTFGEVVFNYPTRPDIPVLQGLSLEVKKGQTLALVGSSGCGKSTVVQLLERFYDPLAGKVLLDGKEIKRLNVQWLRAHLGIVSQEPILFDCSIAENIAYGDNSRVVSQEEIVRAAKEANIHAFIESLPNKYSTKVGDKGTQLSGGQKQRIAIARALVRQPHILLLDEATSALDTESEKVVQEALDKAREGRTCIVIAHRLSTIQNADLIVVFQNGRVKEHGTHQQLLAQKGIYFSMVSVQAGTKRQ

[6] = mean of 8 samples, read-out: % Survival, mean
[7] = trial 1, sample 1, read-out: % Survival
[8] = trial 1, sample 2, read-out: % Survival
[9] = trial 1, sample 3, read-out: % Survival
[10] = trial 1, sample 4, read-out: % Survival
[11] = trial 2, sample 1, read-out: % Survival
[12] = trial 2, sample 2, read-out: % Survival
[13] = trial 2, sample 3, read-out: % Survival
[14] = trial 2, sample 4, read-out: % Survival

Row | Structure (SMILES) | % Survival, mean ([1]; mean of 8 samples) | % Survival ([1]; trial 1, sample 1) | % Survival ([1]; trial 1, sample 2) | % Survival ([1]; trial 1, sample 3) | % Survival ([1]; trial 1, sample 4) | % Survival ([1]; trial 2, sample 1) | % Survival ([1]; trial 2, sample 2) | % Survival ([1]; trial 2, sample 3) | % Survival ([1]; trial 2, sample 4) | Re-sensitization of DU145-TXR cells to PTX (reversal of MDR) [1] | viability at 15 µM [1, 6] | viability at 15 µM [1, 7] | viability at 15 µM [1, 8] | viability at 15 µM [1, 9] | viability at 15 µM [1, 10] | viability at 15 µM [1, 11] | viability at 15 µM [1, 12] | viability at 15 µM [1, 13] | viability at 15 µM [1, 14] | Increase of PTX toxicity against parental A2780 cells [2] | also measured
1 | Cc1onc(-c2ccccc2)c1-c1nnc(Cn2cnc3c(oc4ccccc43)c2=O)o1 [Compound 78, Cc1onc(c1-c1nnc(Cn2cnc3c4ccccc4oc3c2=O)o1)-c1ccccc1] | 40.6% | 40% | 45% | 44% | 45% | 34% | 40% | 35% | 41% | re-sensitized DU145-TXR cells to PTX | 93.3% | 90% | 107% | 99% | 93% | 91% | 89% | 93% | 83% | did not greatly increase the toxicity of PTX against the parental A2780 cells | Mean % Survival ([2]; 15 µM compound + 500 nM PTX): 13.4%; % Survival (individual sample) ([2]; 15 µM compound + 500 nM PTX): 8% and 18%; % Survival (individual sample) ([2]; 15 µM compound alone): 110%; viability at 15 µM ([2]; 15 µM compound alone): 91.4%; Correct Water Solubility Prediction? [3]: Yes; Correct P-gp Substrate Prediction? [4]: No; Top Hit [5]: Yes
2 | O=C(c1nc(-c2ccccn2)no1)N1CCN(c2nsc3ccccc23)CC1 [Compound 124, O=C(N1CCN(CC1)c1nsc2ccccc12)c1nc(no1)-c1ccccn1] | 75.6% | 62% | 72% | 95% | 73% | 91% | 86% | 67% | 58% | re-sensitized DU145-TXR cells to PTX | 98.6% | 96% | 102% | 79% | 95% | 114% | 94% | 103% | 106% | did not greatly increase the toxicity of PTX against the parental A2780 cells | Mean % Survival ([2]; 15 µM compound + 500 nM PTX): 14.5%; % Survival (individual sample) ([2]; 15 µM compound + 500 nM PTX): 10%; % Survival (individual sample) ([2]; 15 µM compound alone): 86%; viability at 15 µM ([2]; 15 µM compound alone): 89.5%; Correct Water Solubility Prediction? [3]: Yes; Correct P-gp Substrate Prediction? [4]: No; Top Hit [5]: No
